Legend:
[1] = test system: THP-1 cells (phagocytosis of opsonized Escherichia coli); assay: Antibody-dependent phagocytosis assay; assay type: cell-based; settings: Homo sapiens; IFNγ differentiated THP-1 cells, opsonized pHrodo Escherichia coli, 3 hours; read-out: IC50 upon phagocytosis inhibition
Outline: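 Read-out was imaging-based quantification of pHrodo-labeled, antibody-opsonized E. coli taken up by Calcein AM-stained viable cells after 3 h at 37° C. The cells were IFNγ-differentiated THP-1 macrophages (10 ng/ml, 2 days), preincubated with compound for 30 min at room temperature.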

[2] = target: T1, glutathione S-transferase (GST)-linked full-length human Syk protein (Homo sapiens, UniProt P43405); assay: Syk enzyme assay; assay type: biochemical; settings: 0.83 nM Syk, time-resolved fluorescence; read-out: IC50 of Syk-inhibitory activity
T1 construct: glutathione S-transferase (GST)-linked full-length human Syk protein; purchased Carna Biosciences; host or cells: Baculovirus expression system
Outline: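 Phosphotyrosine on a biotin-peptide substrate (0.5 μM) was read by time-resolved fluorescence at 615 and 665 nm with Eu-anti-pTyr antibody and APC-streptavidin after 1 h EDTA stop.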

[3] = test system: THP-1 cells (TNFα secretion on human IgG-coated plate); assay: TNFα generation assay; assay type: cell-based; settings: IFN-γ differentiated THP-1 cells, 7 hours, AlphaLISA, read-out: IC50 of TNFα generation inhibitory activity
Outline: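 Secreted TNFα was measured by AlphaLISA after 7 h of culture on human IgG-coated wells (coating at 10 μg/ml), with 5×10^4 cells/well. Before plating, the cells had been treated with compound for 30 min at room temperature. The cells were macrophage-like THP-1, produced by a 2-day exposure to 10 ng/ml IFN-γ.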

IC50 [1] [µM] | IC50 [2] [µM] | IC50 [3] [µM] | SMILES
< 1 | < 0.01 | 0.13 to 0.2 | CCn1nc(OC)c2cc(Nc3nc(N[C@H](CC(C)C)[C@H](C)N)c(F)cc3C(N)=O)ccc21 [Example 2-51, 6-(((2S,3R)-2-amino-5-methylhexan-3-yl)amino)-2-((1-ethyl-3-methoxy-1H-indazol-5-yl)amino)-5-fluoronicotinamide]
1 to 3 | < 0.01 | 0.065 to 0.13 | CCn1ncc2c(Nc3nc(N[C@@H]4CCOC[C@@H]4N)c(F)cc3C(N)=O)cncc21 [Example 2-317, 6-(((3R,4R)-3-aminotetrahydro-2H-pyran-4-yl)amino)-2-((1-ethyl-1H-pyrazolo[3,4-c]pyridin-4-yl)amino)-5-fluoronicotinamide]
1 to 3 | 0.01 to 0.05 | 0.065 to 0.13 | Cc1cncc(Nc2nc(N[C@@H]3CCOC[C@@H]3N)c(F)cc2C(N)=O)c1 [Example 2-218, 6-(((3R,4R)-3-aminotetrahydro-2H-pyran-4-yl)amino)-5-fluoro-2-((5-methylpyridin-3-yl)amino)nicotinamide]
< 1 | < 0.01 | 0.065 to 0.13 | CC[C@@H](Nc1nc(Nc2cccc3c2cnn3CC(F)F)c(C(N)=O)cc1F)[C@H](C)N [Example 2-23, 6-(((2S,3R)-2-aminopentan-3-yl)amino)-2-((1-(2,2-difluoroethyl)-1H-indazol-4-yl)amino)-5-fluoronicotinamide]
1 to 3 | < 0.01 | 0.13 to 0.2 | CC[C@@H](Nc1nc(Nc2ccc3c(c2)c(OC(F)F)nn3C)c(C(N)=O)cc1F)[C@H](C)N [Example 2-170, 6-(((2S,3R)-2-aminopentan-3-yl)amino)-2-((3-(difluoromethoxy)-1-methyl-1H-indazol-5-yl)amino)-5-fluoronicotinamide]
1 to 3 | < 0.01 | 0.065 to 0.13 | COCCn1ncc2c(Nc3nc(N[C@@H]4CCOC[C@@H]4N)c(F)cc3C(N)=O)cc(F)cc21 [Example 2-375, 6-(((3R,4R)-3-aminotetrahydro-2H-pyran-4-yl)amino)-5-fluoro-2-((6-fluoro-1-(2-methoxyethyl)-1H-indazol-4-yl)amino)nicotinamide]
< 1 | < 0.01 | 0.13 to 0.2 | CCn1ncc2c(Nc3nc(N[C@H](C4CCC4)[C@H](C)N)c(F)cc3C(N)=O)cccc21 [Example 2-98, 6-(((1R,2S)-2-amino-1-cyclobutylpropyl)amino)-2-((1-ethyl-1H-indazol-4-yl)amino)-5-fluoronicotinamide]
< 1 | < 0.01 | 0.13 to 0.2 | COCCn1nc(OC)c2cc(Nc3nc(N[C@H](CC(C)C)[C@H](C)N)c(F)cc3C(N)=O)ccc21 [Example 2-127, 6-(((2S,3R)-2-amino-5-methylhexan-3-yl)amino)-5-fluoro-2-((3-methoxy-1-(2-methoxyethyl)-1H-indazol-5-yl)amino)nicotinamide]
< 1 | < 0.01 | 0.13 to 0.2 | CC[C@H](N)[C@@H](C)Nc1nc(Nc2cncc3c2cnn3CC)c(C(N)=O)cc1F [Example 2-325, 6-(((2R,3S)-3-aminopentan-2-yl)amino)-2-((1-ethyl-1H-pyrazolo[3,4-c]pyridin-4-yl)amino)-5-fluoronicotinamide]
1 to 3 | < 0.01 | 0.13 to 0.2 | COCCn1ncc2c(Nc3nc(N[C@H](C4CC4)[C@H](C)N)c(F)cc3C(N)=O)cccc21 [Example 2-306, 6-(((1R,2S)-2-amino-1-cyclopropylpropyl)amino)-5-fluoro-2-((1-(2-methoxyethyl)-1H-indazol-4-yl)amino)nicotinamide]
1 to 3 | < 0.01 | 0.13 to 0.2 | COc1ncc(Nc2nc(N[C@H](C3CCC3)[C@H](C)N)c(F)cc2C(N)=O)cc1-n1nccn1 [Example 2-114, 6-(((1R,2S)-2-amino-1-cyclobutylpropyl)amino)-5-fluoro-2-((6-methoxy-5-(2H-1,2,3-triazol-2-yl)pyridin-3-yl)amino)nicotinamide]
1 to 3 | < 0.01 | 0.13 to 0.2 | Cc1ncc(Nc2nc(N[C@H](c3ccccc3F)[C@H](C)N)c(F)cc2C(N)=O)cc1-n1nccn1 [Example 2-409, 6-(((1R,2S)-2-amino-1-(2-fluorophenyl)propyl)amino)-5-fluoro-2-((6-methyl-5-(2H-1,2,3-triazol-2-yl)pyridin-3-yl)amino)nicotinamide]
< 1 | < 0.01 | 0.065 to 0.13 | CC[C@@H](Nc1nc(Nc2cc(F)cc3c2cnn3CCOC)c(C(N)=O)cc1F)[C@H](C)N [Example 2-376, 6-(((2S,3R)-2-aminopentan-3-yl)amino)-5-fluoro-2-((6-fluoro-1-(2-methoxyethyl)-1H-indazol-4-yl)amino)nicotinamide]
< 1 | < 0.01 | 0.065 to 0.13 | CC[C@@H](Nc1nc(Nc2cnc(C)c(-n3nccn3)c2)c(C(N)=O)cc1F)[C@H](C)N [Example 2-31, 6-(((2S,3R)-2-aminopentan-3-yl)amino)-5-fluoro-2-((6-methyl-5-(2H-1,2,3-triazol-2-yl)pyridin-3-yl)amino)nicotinamide]
1 to 3 | 0.01 to 0.05 | 0.13 to 0.2 | COc1ncc(Nc2nc(N[C@@H]3CCOC[C@@H]3N)c(F)cc2C(N)=O)cc1-n1nccn1 [Example 2-216, 6-(((3R,4R)-3-aminotetrahydro-2H-pyran-4-yl)amino)-5-fluoro-2-((6-methoxy-5-(2H-1,2,3-triazol-2-yl)pyridin-3-yl)amino)nicotinamide]
1 to 3 | 0.01 to 0.05 | 0.13 to 0.2 | CC[C@H](N)[C@@H](CC)Nc1nc(Nc2cnc(C)c(C)c2)c(C(N)=O)cc1F [Example 2-36, 6-(((3R,4S)-4-aminohexan-3-yl)amino) 2-((5,6-dimethylpyridin-3-yl)amino)-5-fluoronicotinamide]
< 1 | 0.01 to 0.05 | 0.13 to 0.2 | COc1ncc(Nc2nc(N[C@H](CC(C)C)[C@H](C)N)c(F)cc2C(N)=O)cc1F [Example 2-66, 6-(((2S,3R)-2-amino-5-methylhexan-3-yl)amino)-5-fluoro-2-((5-fluoro-6-methoxypyridin-3-yl)amino)nicotinamide]
< 1 | < 0.01 | 0.065 to 0.13 | Cc1cccc(Nc2nc(N[C@H](C3CC3)[C@H](C)N)c(F)cc2C(N)=O)c1 [Example 2-44, 6-(((1R,2S)-2-amino-1-cyclopropylpropyl)amino)-5-fluoro-2-(m-tolylamino)nicotinamide]
< 1 | < 0.01 | 0.065 to 0.13 | COc1nn(CC(F)F)c2ccc(Nc3nc(N[C@H](C4CC4)[C@H](C)N)c(F)cc3C(N)=O)cc12 [Example 2-74, 6-(((1R,2S)-2-amino-1-cyclopropylpropyl)amino)-2-((1-(2,2-difluoroethyl)-3-methoxy-1H-indazol-5-yl)amino)-5-fluoronicotinamide]
< 1 | < 0.01 | 0.065 to 0.13 | CCn1ncc2c(Nc3nc(N[C@H](CC(C)C)[C@H](C)N)c(F)cc3C(N)=O)cncc21 [Example 2-322, 6-(((2S,3R)-2-amino-5-methylhexan-3-yl)amino)-2-((1-ethyl-1H-pyrazolo[3,4-c]pyridin-4-yl)amino)-5-fluoronicotinamide]
1 to 3 | < 0.01 | 0.13 to 0.2 | Cc1ncc(Nc2nc(N[C@H](CC(C)C)[C@H](C)N)c(F)cc2C(N)=O)cc1F [Example 2-224, 6-(((2S,3R)-2-amino-5-methylhexan-3-yl)amino)-5-fluoro-2-((5-fluoro-6-methylpyridin-3-yl)amino)nicotinamide]
< 1 | 0.01 to 0.05 | 0.13 to 0.2 | Cc1ncc(Nc2nc(N[C@H](c3ccc(F)cc3)[C@H](C)N)c(F)cc2C(N)=O)cc1F [Example 2-272, 6-(((1R,2S)-2-amino-1-(4-fluorophenyl)propyl)amino)-5-fluoro-2-((5-fluoro-6-methylpyridin-3-yl)amino)nicotinamide]
< 1 | < 0.01 | 0.13 to 0.2 | Cc1ncc(Nc2nc(N[C@H](C3CCC3)[C@H](C)N)c(F)cc2C(N)=O)cc1F [Example 2-221, 6-(((1R,2S)-2-amino-1-cyclobutylpropyl)amino)-5-fluoro-2-((5-fluoro-6-methylpyridin-3-yl)amino)nicotinamide]
< 1 | < 0.01 | 0.13 to 0.2 | CCC[C@@H](Nc1nc(Nc2cccc3c2cnn3CC)c(C(N)=O)cc1F)[C@H](C)N [Example 2-96, 6-(((2S,3R)-2-aminohexan-3-yl)amino)-2-((1-ethyl-1H-indazol-4-yl)amino)-5-fluoronicotinamide]
< 1 | < 0.01 | 0.065 to 0.13 | CCn1ncc2c(Nc3nc(N[C@H](C4CC4)[C@H](C)N)c(F)cc3C(N)=O)cncc21 [Example 2-320, 6-(((1R,2S)-2-amino-1-cyclopropylpropyl)amino)-2-((1-ethyl-1H-pyrazolo[3,4-c]pyridin-4-yl)amino)-5-fluoronicotinamide]
